Consider 15 compounds from patent publication US20250101003A1, “SPIROCYCLIC CAV2.3 ANTAGONISTS” (LARIO THERAPEUTICS LIMITED, priority 2021, published 2025).

The target of assay [1] is T1, Cav2.3 (Homo sapiens, UniProt Q15878). Put plainly: Human Cav2.3 channel calcium-influx assay. Type of assay: cell-based. Particulars: HEK-293 T-Rex/Kir2.1/Cav2.3e-β4-α2δ1 cells, Fluo8 fluorescence, without pluronic acid; read-out: Cav2.3 (pIC50) (converted). The procedure, abridged:
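Doxycycline-induced HEK-293 T-Rex/Kir2.1 clone stably expressing Cav2.3e with β4-α2δ1, loaded with Fluo8 NW; compounds (8 points from 30 μM, half-log, 0.3% DMSO) preincubated 3 min at RT. Depolarized with 20 mM KCl/2 mM CaCl2; peak-minus-baseline fluorescence over 130 s normalized to neutral and inhibitor controls as % activity.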
Target sequence in this assay (Q15878 1-747 limits assumed): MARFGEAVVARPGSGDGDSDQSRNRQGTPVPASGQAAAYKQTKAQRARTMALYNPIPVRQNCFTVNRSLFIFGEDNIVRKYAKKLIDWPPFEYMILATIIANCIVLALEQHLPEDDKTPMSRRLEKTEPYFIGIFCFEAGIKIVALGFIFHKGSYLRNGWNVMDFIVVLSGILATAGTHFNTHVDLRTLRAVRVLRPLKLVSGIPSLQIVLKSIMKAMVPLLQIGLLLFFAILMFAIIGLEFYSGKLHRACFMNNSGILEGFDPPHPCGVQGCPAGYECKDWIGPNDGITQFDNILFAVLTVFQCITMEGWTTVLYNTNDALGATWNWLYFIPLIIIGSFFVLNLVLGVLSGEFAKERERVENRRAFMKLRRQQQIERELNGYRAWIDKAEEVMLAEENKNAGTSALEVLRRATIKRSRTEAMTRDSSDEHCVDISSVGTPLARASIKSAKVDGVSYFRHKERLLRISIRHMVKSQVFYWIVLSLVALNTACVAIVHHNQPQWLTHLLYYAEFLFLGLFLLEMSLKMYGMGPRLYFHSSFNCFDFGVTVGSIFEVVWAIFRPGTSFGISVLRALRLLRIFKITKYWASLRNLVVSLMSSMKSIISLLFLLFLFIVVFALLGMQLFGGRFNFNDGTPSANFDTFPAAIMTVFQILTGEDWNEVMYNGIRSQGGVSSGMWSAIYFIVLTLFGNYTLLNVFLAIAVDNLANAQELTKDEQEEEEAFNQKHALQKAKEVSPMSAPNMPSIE
Target sequence in this assay (Q15878 1126-2313 limits assumed): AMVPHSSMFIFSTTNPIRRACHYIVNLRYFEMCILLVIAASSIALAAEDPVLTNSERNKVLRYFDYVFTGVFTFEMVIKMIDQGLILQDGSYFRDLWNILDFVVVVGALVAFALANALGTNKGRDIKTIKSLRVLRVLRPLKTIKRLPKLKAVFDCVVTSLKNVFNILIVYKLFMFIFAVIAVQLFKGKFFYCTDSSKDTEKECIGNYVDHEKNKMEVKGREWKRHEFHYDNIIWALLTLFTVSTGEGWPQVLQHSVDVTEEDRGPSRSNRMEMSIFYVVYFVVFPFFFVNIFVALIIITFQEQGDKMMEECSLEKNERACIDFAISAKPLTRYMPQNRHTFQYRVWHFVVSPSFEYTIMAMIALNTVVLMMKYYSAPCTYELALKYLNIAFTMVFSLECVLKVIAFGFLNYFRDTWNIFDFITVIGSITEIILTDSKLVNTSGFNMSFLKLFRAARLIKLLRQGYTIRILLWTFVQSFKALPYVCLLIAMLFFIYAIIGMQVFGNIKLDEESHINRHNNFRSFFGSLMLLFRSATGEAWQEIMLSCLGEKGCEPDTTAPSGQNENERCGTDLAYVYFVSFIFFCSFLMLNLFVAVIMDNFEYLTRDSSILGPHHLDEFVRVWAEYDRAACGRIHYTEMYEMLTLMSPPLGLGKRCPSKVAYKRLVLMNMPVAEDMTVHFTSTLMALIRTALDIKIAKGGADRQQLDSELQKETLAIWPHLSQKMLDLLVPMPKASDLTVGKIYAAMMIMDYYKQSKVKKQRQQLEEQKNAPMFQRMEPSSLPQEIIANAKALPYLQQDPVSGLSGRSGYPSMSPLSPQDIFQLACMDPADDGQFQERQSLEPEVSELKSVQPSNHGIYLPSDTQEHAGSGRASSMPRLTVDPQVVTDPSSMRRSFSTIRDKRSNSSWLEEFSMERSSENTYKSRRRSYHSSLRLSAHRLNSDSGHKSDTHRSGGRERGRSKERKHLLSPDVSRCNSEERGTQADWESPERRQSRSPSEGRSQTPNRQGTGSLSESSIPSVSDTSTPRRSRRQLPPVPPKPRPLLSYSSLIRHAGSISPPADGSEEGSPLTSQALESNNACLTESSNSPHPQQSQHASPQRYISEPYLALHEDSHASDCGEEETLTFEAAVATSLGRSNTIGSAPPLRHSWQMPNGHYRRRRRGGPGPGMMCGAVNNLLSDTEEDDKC

The target in assay [2] is T1, Cav2.3. Put plainly: Whole-cell patch clamp assay (QPatch 16X). Format: cell-based. As to conditions: whole-cell voltage clamp, HEK-293 T-Rex/Kir2.1/Cav2.3e-β4-α2δ1 cells, room temperature; read-out: Cav2.3 (pIC50) (converted). Here is the method:
HEK-293 T-Rex/Kir2.1/Cav2.3e-β4-α2δ1 cells were seeded 96 hours before experiment and doxycycline at 0.2 μg/mL was added 24 hours before experiment. Just before the experiments cells were washed twice with D-PBS w/o Ca2+/Mg2+ and gently detached from the flask with Detachin. Cells were then re-suspended in the suspension solution (25 mL EX-CELL ACF CHO medium; 0.25 mL of 100× Penicillin/Streptomycin) and placed on the Automated Patch-clamp platform (QPatch 16X).
Standard whole-cell voltage clamp experiments were performed at room temperature using the single hole technology and the following intracellular and extracellular solutions (ICS and ECS, respectively) were used. ICS (mM): CsF 60, CsCl 50, NaCl 10, EGTA 20, BAPTA 5, HEPES 10, NaGTP 0.3, MgATP 5 (pH 7.2; ECS (mM): NMDG-Cl 120, BaCl2 20, HEPES 10, EGTA 7 (pH 7.4). After establishment of the seal and the passage in the whole-cell configuration, the Cav2.3 dependent current was evoked by challenging the cells with the following voltage protocol: the plasma membrane was held at −80 mV then a 50 ms-long depolarizing pulse at 0 mV, followed by a 50 ms-long hyperpolarizing pulse at −100 mV were applied and finally the plasma membrane was held back to −80 mV. This voltage protocol was applied every 10 seconds. Cav2.3 dependent current was first measured in control condition (vehicle, 0.1% DMSO), in the presence of increasing concentration of the compound under investigation and finally SNX 482 was added to fully block any R-type Cav2.3 dependent current.
For data collection, the Sophion proprietary software was used while the analysis was performed off-line using Excel and GraphPad Prism. The inward current (Area Under Curve) measured during each depolarizing pulse was normalized to cell membrane capacitance (Cm) to obtain the average inward current density in each condition (control, compound under investigation and SNX 482). Then, the inhibitory effect of the compound under investigation was evaluated as % of the remaining inward current, normalized to the internal control. […] All data were expressed as mean±S.E
Target sequence in this assay (Q15878 1-747 limits assumed): as the sequence (Q15878 1-747 limits assumed) above
Target sequence in this assay (Q15878 1126-1966 limits assumed): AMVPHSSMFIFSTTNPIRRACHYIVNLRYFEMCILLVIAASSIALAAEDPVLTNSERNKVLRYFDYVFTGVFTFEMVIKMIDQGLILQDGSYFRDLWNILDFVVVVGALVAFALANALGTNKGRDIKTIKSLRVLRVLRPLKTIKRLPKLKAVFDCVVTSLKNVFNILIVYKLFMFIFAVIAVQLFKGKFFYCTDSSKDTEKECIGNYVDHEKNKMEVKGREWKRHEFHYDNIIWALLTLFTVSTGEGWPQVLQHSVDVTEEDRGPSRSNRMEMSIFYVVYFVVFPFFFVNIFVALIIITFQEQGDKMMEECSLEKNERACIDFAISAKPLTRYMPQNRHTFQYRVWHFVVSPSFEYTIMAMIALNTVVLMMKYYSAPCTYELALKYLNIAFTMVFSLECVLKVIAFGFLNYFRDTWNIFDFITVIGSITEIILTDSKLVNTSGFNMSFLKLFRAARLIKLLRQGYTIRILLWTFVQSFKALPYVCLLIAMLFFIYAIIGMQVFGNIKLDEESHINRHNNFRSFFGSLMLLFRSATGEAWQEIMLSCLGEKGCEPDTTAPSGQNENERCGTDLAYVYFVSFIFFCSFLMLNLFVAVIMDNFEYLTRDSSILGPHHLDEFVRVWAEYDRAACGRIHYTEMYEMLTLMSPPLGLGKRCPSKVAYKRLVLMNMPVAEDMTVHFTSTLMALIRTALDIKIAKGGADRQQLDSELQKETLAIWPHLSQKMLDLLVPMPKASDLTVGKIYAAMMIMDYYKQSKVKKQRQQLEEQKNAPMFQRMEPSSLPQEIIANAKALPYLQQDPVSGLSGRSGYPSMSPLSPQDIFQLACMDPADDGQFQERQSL
A general note: Patch clamp records ionic current or voltage across a cell membrane.

For the compound `CC(C)C(=O)N1CCc2ccc(S(=O)(=O)N3CC4(CCC4)CC3C)cc2C1` (centres unmarked) [Example 30, 2-Methyl-1-(7-((7-methyl-6-azaspiro[3.4]octan-6-yl)sulfonyl)-3,4-dihydroisoquinolin-2(1H)-yl)propan-1-one], the IC50 on Cav2.3 [1] is 912 nM; on Cav2.3 [2], 1700 nM.

In the case of `CCOC(=O)N1CCc2ccc(S(=O)(=O)N3CC4(CCC4)CC3C)cc2C1` (single isomer, unassigned) [Example 23, Ethyl 7-((7-methyl-6-azaspiro[3.4]octan-6-yl)sulfonyl)-3,4-dihydroisoquinoline-2(1H)-carboxylate], the IC50 at Cav2.3 [1] was 501 nM; on Cav2.3 [2], 832 nM.

For the compound `CCC1CC2(CCC2)CN1S(=O)(=O)c1cccs1` (single isomer, unassigned) [Example 71, 7-ethyl-6-(thiophen-2-ylsulfonyl)-6-azaspiro[3.4]octane], the figures for the IC50 on Cav2.3 [1] and at Cav2.3 [2] were 1170 nM and 1580 nM, respectively.

In the case of `CCC1CC2(CCC2)CN1S(=O)(=O)c1ccc2c(c1)CN(C(=O)C(F)(F)F)CC2` (centres unmarked) [Example 33, 1-(7-((7-Ethyl-6-azaspiro[3.4]octan-6-yl)sulfonyl)-3,4-dihydroisoquinolin-2(1H)-yl)-2,2,2-trifluoroethan-1-one], the IC50 on Cav2.3 [1] is 1860 nM; at Cav2.3 [2], 2820 nM.

For the compound `CC1CC2(CCC2)CN1S(=O)(=O)c1ccc2c(c1)CN(C(=O)c1ccccc1)CC2` (single isomer, unassigned) [Example 28, (7-((7-methyl-6-azaspiro[3.4]octan-6-yl)sulfonyl)-3,4-dihydroisoquinolin-2(1H)-yl)(phenyl)methanone], the IC50 was 1510 nM at Cav2.3 [1] and 1700 nM on Cav2.3 [2].

For `CC(C)C(=O)N1CCc2ccc(S(=O)(=O)N3CC4(CCCC4)CC3C)cc2C1` (centres unmarked) [Example 100, 2-Methyl-1-(7-((3-methyl-2-azaspiro[4.4]nonan-2-yl)sulfonyl)-3,4-dihydroisoquinolin-2(1H)-yl)propan-1-one], the figures for the IC50 at Cav2.3 [1] and on Cav2.3 [2] were 708 nM and 1170 nM, respectively.

`CC1CC2(CCC2)CN1S(=O)(=O)c1cccs1` (single isomer, unassigned) [Example 104, 7-methyl-6-(thiophen-2-ylsulfonyl)-6-azaspiro[3.4]octane]: the IC50 on Cav2.3 [1] was 1410 nM; on Cav2.3 [2], 3720 nM.

Consider `CC1CC2(CCC2)CN1S(=O)(=O)c1ccc2c(c1)CN(C(=O)c1ccccc1)CC2` (single isomer, unassigned) [Example 27, (7-((7-Methyl-6-azaspiro[3.4]octan-6-yl)sulfonyl)-3,4-dihydroisoquinolin-2(1H)-yl)(phenyl)methanone], for which the IC50 at Cav2.3 [1] is 851 nM; at Cav2.3 [2], 832 nM.

As to `CCC1CC2(CCC2)CN1S(=O)(=O)c1ccc2nc(C)sc2c1` (centres unmarked) [Example 1, 6-((7-Ethyl-6-azaspiro[3.4]octan-6-yl)sulfonyl)-2-methylbenzo[d]thiazole], the IC50 is 1410 nM on Cav2.3 [1] and 2820 nM on Cav2.3 [2].

As to `CC1CC2(CCC2)CN1S(=O)(=O)c1ccc2c(c1)CN(C(=O)c1ccccc1)CC2` (centres unmarked) [Example 26, (7-((7-Methyl-6-azaspiro[3.4]octan-6-yl)sulfonyl)-3,4-dihydroisoquinolin-2(1H)-yl)(phenyl)methanone], the figures for the IC50 on Cav2.3 [1] and on Cav2.3 [2] were 1100 nM and 525 nM, respectively.

As for `CC(C)C(=O)N1CCc2ccc(S(=O)(=O)N3CC4(CCC4)CC3C)cc2C1` (single isomer, unassigned) [Example 32, 2-methyl-1-(7-((7-methyl-6-azaspiro[3.4]octan-6-yl)sulfonyl)-3,4-dihydroisoquinolin-2(1H)-yl)propan-1-one], the IC50 at Cav2.3 [1] was 1580 nM; on Cav2.3 [2], 2340 nM.

Take `CC1CC2(CCC2)CN1S(=O)(=O)c1ccc2c(c1)CN(C(=O)Cc1ccccc1)CC2` (centres unmarked) [Example 21, 1-(7-((7-Methyl-6-azaspiro[3.4]octan-6-yl)sulfonyl)-3,4-dihydroisoquinolin-2(1H)-yl)-2-phenylethan-1-one]: the IC50 was 955 nM on Cav2.3 [1] and 933 nM at Cav2.3 [2].

`CC1CC2(CCC2)CN1S(=O)(=O)c1ccc(C#N)s1` (single isomer, unassigned) [Example 10, 5-((7-methyl-6-azaspiro[3.4]octan-6-yl)sulfonyl)thiophene-2-carbonitrile]: at Cav2.3 [1], the IC50 was 2690 nM.

Consider `CC(C)C(=O)N1CCc2ccc(S(=O)(=O)N3CC4(CCC4)CC3C)cc2C1` (single isomer, unassigned) [Example 31, 2-Methyl-1-(7-((7-methyl-6-azaspiro[3.4]octan-6-yl)sulfonyl)-3,4-dihydroisoquinolin-2(1H)-yl)propan-1-one], for which the IC50 at Cav2.3 [1] was 646 nM; on Cav2.3 [2], 4070 nM.

For the compound `CCOC(=O)N1CCc2ccc(S(=O)(=O)N3CC4(CCC4)CC3C)cc2C1` (centres unmarked) [Example 22, Ethyl 7-((7-methyl-6-azaspiro[3.4]octan-6-yl)sulfonyl)-3,4-dihydroisoquinoline-2(1H)-carboxylate], the IC50 at Cav2.3 [1] was 741 nM; at Cav2.3 [2], 759 nM.
